Experimental data as given in the METLIN SMRT retention time set (Domingo-Almenara et al. 2019).

Assay: gradient 5% acetonitrile 3 min, to 50% in 2 min, to 85% in 15 min, held 3 min, 100 µL/min
Conditions: column: Zorbax Extend-C18 2.1 x 50 mm; eluents: water / acetonitrile, 0.1% formic acid
Procedure, shortened: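 A Zorbax Extend-C18 column (2.1 × 50 mm, 1.8 μm) run at 100 μL/min with water and acetonitrile, both containing 0.1% formic acid, separated mixtures of ~100 pure standards. The HPLC was coupled to a quadrupole time-of-flight mass spectrometer operated in positive and negative ionization mode, with dead and dwell volumes of 40 μL and 900 μL. Each retention time was taken from a computationally picked adduct peak that was then manually inspected.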

Work on `Cc1ccc(N2C(=O)CN(S(=O)(=O)c3ccccc3)CC2(C)C(=O)NC2CCCC2)cc1` (stereo not drawn) yielded an RP-LC retention time of 917 s.
For `COc1ccccc1-c1noc(-c2nnn3c2COC(c2ccc(Cl)cc2)C3)n1` (stereo not drawn), the RP-LC retention time was 1220 s.
`Cc1ccc(C(=O)N2CC(c3nc(CCOCC4CC4)no3)C2)s1` showed an RP-LC retention time of 806 s.
Work on `O=C(C1CCC1)N1CCCC(OCc2nc(-c3ccncc3)no2)C1` (stereo not drawn) yielded an RP-LC retention time of 713 s.
In the case of `O=C(Cc1csc2nc(-c3cccc(Br)c3)cn12)NCc1ccc(F)cc1`, the RP-LC retention time is reported as 909 s.
Compound `CCn1cc(-c2ccc(OC)cc2)cc1C(=O)NCCN1CCN(C)CC1` has an RP-LC retention time of 623 s.
Compound `CCCOc1ccc(CNC(=O)C2CCCN(c3ncnc4c3oc3ccccc34)C2)cc1` (stereo not drawn) has an RP-LC retention time of 889 s.
For `CC1Cc2ccccc2N1C(=O)CCn1c(=O)sc2ccccc21` (stereo not drawn), the RP-LC retention time was 923 s.
Compound `CC(C)N1CCN(c2cc(-c3nc(-c4cccc(F)c4)no3)c3ccccc3n2)CC1` has an RP-LC retention time of 890 s.
Work on `CCc1ccccc1NC(=O)N1CCC2(CC1)NC(=O)c1ccccc1N2CC` yielded an RP-LC retention time of 797 s.
`COc1ccc(OC)c(NC(=O)c2cc(NC(=O)C(C)C)cc3nc(C)ccc23)c1` gave an RP-LC retention time of 663 s.
For `CC(C)NC(=O)Cn1c(C2CCCO2)nc2ccccc21` (stereo not drawn), the RP-LC retention time was 585 s.
In the case of `CCN(CC)CCCNC(=O)c1ccc(-c2ccc3c(c2)CCN3C(C)=O)cc1`, the RP-LC retention time is reported as 612 s.
Compound `Cc1ccc(-c2noc(C3CCCN3S(=O)(=O)c3ccc(C)c(C)c3)n2)cc1` (stereo not drawn) has an RP-LC retention time of 1260 s.
In the case of `CCn1cc(-c2nc(C(=O)Nc3cc(F)ccc3F)cs2)c2cccnc21`, the RP-LC retention time is reported as 1220 s.
For `CCN1CCC(N2CCC3(CC2)NCCc2c3[nH]c3ccc(OC)cc23)CC1`, the RP-LC retention time was 517 s.
With `Cc1nc(CSc2ncnc3sc4c(c23)CCC4)cs1` the RP-LC retention time was 1040 s.
For `COc1cccc(-c2nc(-c3cccc(-c4ccnn4C)c3)no2)c1`, the RP-LC retention time was 1120 s.
Work on `COc1cccc(-c2noc(Cn3c(=O)n(-c4ccc(C)cc4)c(=O)c4sccc43)n2)c1` yielded an RP-LC retention time of 1030 s.
In the case of `COc1ccc(-c2ncc3c(n2)CCN(C(=O)Nc2ccc(Cl)cc2)C3)cc1`, the RP-LC retention time is reported as 978 s.
With `Cc1cc(C)c2c(N3CCSCC3)nc(C(=O)N3CCCC3)nc2n1` the RP-LC retention time was 617 s.
`COc1ccc(/C=C/c2ccccc2F)cc1` showed an RP-LC retention time of 1170 s.
Work on `O=C(CS(=O)(=O)c1ccc(Cl)cc1)Nc1nc(-c2ccc3c(c2)OCO3)cs1` yielded an RP-LC retention time of 959 s.
Work on `COc1cc2c(Nc3ccc(Br)cc3F)ncnc2cc1OCC1CCN(C)CC1` yielded an RP-LC retention time of 644 s.
For `CCCC(=O)Nc1ccc2c(c1)nc(CN1CCN(S(C)(=O)=O)CC1)n2CC`, the RP-LC retention time was 608 s.
With `Cc1c(-c2ccnc(N3CCN(C)CC3)n2)cnc2nc(-c3ccccc3)nn12` the RP-LC retention time was 640 s.
For `O=C(CSc1ccc(-n2cccn2)nn1)NCc1ccco1`, the RP-LC retention time was 653 s.
`CCOC(=O)CNC(=O)Nc1ccccc1-c1cc2ccccc2[nH]1` gave an RP-LC retention time of 866 s.
For `O=C(NC(c1nnc(-c2ccccc2)o1)c1ccccc1Cl)c1ccco1` (stereo not drawn), the RP-LC retention time was 911 s.
In the case of `CCN(CCN(C)C)c1ccc(C(=O)O)cc1NS(=O)(=O)c1ccccc1Cl`, the RP-LC retention time is reported as 582 s.
In the case of `CCn1c(CCNC(=O)c2ccc(F)c(Cl)c2)nc2cccnc21`, the RP-LC retention time is reported as 676 s.
`CNc1nc(Nc2cn(C(C)(C)C#N)nc2C)ncc1C(F)(F)F` showed an RP-LC retention time of 696 s.
For `CCOC(=O)c1nc(NCCN2CCOCC2)c2ccccc2n1`, the RP-LC retention time was 584 s.
Work on `O=C1CN(S(=O)(=O)c2ccc(F)c(Cl)c2)CC2(CCOCC2)N1CC1CC1` yielded an RP-LC retention time of 881 s.
`CN(CC1CCOCC1)C(=O)Nc1cc(F)c(F)c(F)c1` showed an RP-LC retention time of 804 s.
Work on `O=C(NCc1nc(-c2ccc(NS(=O)(=O)c3cccs3)cc2)no1)c1ccccc1` yielded an RP-LC retention time of 848 s.
In the case of `COc1cccc2[nH]c(C(=O)NCCC(=O)NCCc3c[nH]c4ccccc34)cc12`, the RP-LC retention time is reported as 662 s.
With `O=C(Nc1nnc(SCc2nnc(-c3ccc4c(c3)OCO4)o2)s1)c1cccs1` the RP-LC retention time was 815 s.
`Clc1ccc(-c2nc3ncccn3c2Nc2ccccc2)cc1` gave an RP-LC retention time of 818 s.
`CCn1cc(CCN2CCN(C(=O)c3ccc(Br)cc3)CC2)c2cccnc21` gave an RP-LC retention time of 629 s.
For `COc1ccccc1CNC(=O)Cc1csc(NC(=O)Nc2cccc(Cl)c2)n1`, the RP-LC retention time was 837 s.
With `CSc1ccc(C(=O)NC2CCCCC2NC(=O)CNC(=O)c2cc(C(F)(F)F)ccc2NC(=O)NC(C)C)cc1` (stereo not drawn) the RP-LC retention time was 924 s.
`Cc1ccc(NC(=O)N2CCCC(C)(C(=O)NCc3ccccc3)C2)c(C)c1` (stereo not drawn) showed an RP-LC retention time of 924 s.
For `CCc1cccc(NC(=O)C2(Cc3ccccc3)CCCCC(=O)N2)c1` (stereo not drawn), the RP-LC retention time was 931 s.
With `COc1ccc2[nH]c3c(c2c1)CCN(C(=O)C1CC1)C3c1ccc(F)cc1` (stereo not drawn) the RP-LC retention time was 949 s.
Compound `COc1ccc(S(=O)(=O)NCc2ccc3c(c2)CCN3C(=O)c2ccccc2)cc1OC` has an RP-LC retention time of 824 s.
Compound `Cc1cccc(N2CCN(C(=O)Cn3ccc4ccc(N5CCOCC5)nc43)CC2)c1` has an RP-LC retention time of 959 s.
`COc1cc(Cl)ccc1C(=O)NC1CCN(c2cc(-c3ccc(F)cc3)[nH]n2)C1` (stereo not drawn) gave an RP-LC retention time of 807 s.
Compound `O=C(NCC1CCCO1)C(=O)NCC1(O)CCOCC1` (stereo not drawn) has an RP-LC retention time of 540 s.
With `O=C(NCCCc1ccccc1)c1nnc(-c2ccc(S(=O)(=O)N3CCCCC3)cc2)o1` the RP-LC retention time was 1070 s.
For `CCC(Oc1ccc(=O)n(-c2cc(Cl)ccc2C)n1)C(=O)NCCOC` (stereo not drawn), the RP-LC retention time was 698 s.
`COc1cccc(NC(=O)c2cn(CC3CCCO3)cc3c(=O)n(-c4ccccc4)nc2-3)c1` (stereo not drawn) gave an RP-LC retention time of 997 s.
In the case of `O=C1CCCN1CCCN(CC(=O)N1CCNCC1)C(=O)c1ccc(F)c(Cl)c1`, the RP-LC retention time is reported as 581 s.
For `CCC1Oc2ccc(S(=O)(=O)N3CCC(C(=O)Nc4ccc(OC)cc4)CC3)cc2NC1=O` (stereo not drawn), the RP-LC retention time was 861 s.
`CC(C)N1C(=O)C2(CCCCC2)C1C(=O)N1CCOCC1` (stereo not drawn) showed an RP-LC retention time of 633 s.
Compound `CNC(=O)c1ccc(-c2nc3cc(NS(=O)(=O)c4cccc(Cl)c4)ccc3n2C)cc1` has an RP-LC retention time of 653 s.
`COc1cccc(NC(=O)Nc2nccn(-c3ccc(F)c(F)c3)c2=O)c1` gave an RP-LC retention time of 927 s.
With `COCCNC(=O)CN1c2ccccc2NC2=C(C(=O)CC(C)(C)C2)C1c1ccc(OC)cc1` (stereo not drawn) the RP-LC retention time was 743 s.
`COc1ccc(NC(=O)c2cn(-c3cc(N4CCCCC4C)ncn3)cn2)cc1OC` (stereo not drawn) gave an RP-LC retention time of 939 s.
Work on `CCOC(=O)c1cc(S(=O)(=O)N2CCCC2C(=O)N2CCCCCC2)cn1C` (stereo not drawn) yielded an RP-LC retention time of 822 s.
For `O=C(CCc1ccccc1)N1CCCC1c1nc(-c2ccccc2Cl)no1` (stereo not drawn), the RP-LC retention time was 1040 s.
Compound `Cc1ccc(Cl)cc1S(=O)(=O)NCC(=O)N1CCOC(c2ccccc2)C1` (stereo not drawn) has an RP-LC retention time of 910 s.
`COc1cccc(CNC(=O)c2nnc(-c3ccc(S(=O)(=O)N4CCCCC4)cc3)o2)c1` gave an RP-LC retention time of 960 s.
In the case of `c1ccc(-c2nc(CSc3ccc(-n4cccn4)nn3)cs2)cc1`, the RP-LC retention time is reported as 1020 s.
`CCOC(=O)c1nc(NCCN2CCCc3ccccc32)c2ccccc2n1` showed an RP-LC retention time of 729 s.
Compound `O=C(c1ccc(Cl)s1)N1CCc2nc(-c3ccc(F)cc3)ncc2C1` has an RP-LC retention time of 1070 s.
With `Cc1ccccc1-c1nnc(COc2ccc(NC(=O)C3CCC3)cc2)o1` the RP-LC retention time was 885 s.
In the case of `COc1ccc(-c2nnc(-c3cc(S(=O)(=O)NCc4ccco4)ccc3Cl)o2)cc1`, the RP-LC retention time is reported as 964 s.
Work on `COc1cc2c(cc1OC)C(C(=O)NCc1ccccn1)C1c3ccccc3CCN1C2=O` (stereo not drawn) yielded an RP-LC retention time of 616 s.
Compound `Cc1cc(C)cc(NC(=O)N2C[C@@H](F)C[C@H]2C(=O)N2CCc3ccccc3C2)c1` has an RP-LC retention time of 879 s.
Work on `Nc1ccc(-c2nc3ccc(-c4nc5ccc(N)cc5[nH]4)cc3[nH]2)cc1` yielded an RP-LC retention time of 568 s.
Work on `O=C(Nc1ccc(F)c(Cl)c1)NC1CCCN(c2cc(-c3ccncc3)[nH]n2)C1` (stereo not drawn) yielded an RP-LC retention time of 657 s.
In the case of `COCCOCc1nc(C2CCCN2S(=O)(=O)c2ccccc2)no1` (stereo not drawn), the RP-LC retention time is reported as 781 s.
Compound `Cc1ccc(NC(=O)CN2CCC(c3nc(-c4cccs4)no3)CC2)c(Cl)c1` has an RP-LC retention time of 777 s.
For `Cc1ccc(Cl)cc1NC(=O)Cn1nc2c(Oc3ccc(C(C)C)cc3)nccn2c1=O`, the RP-LC retention time was 1080 s.
`CCCn1cc(CCNC(=O)Nc2cc(Cl)ccc2Cl)c2cccnc21` showed an RP-LC retention time of 963 s.
Work on `CCOC(=O)c1[nH]c(C)c(CCC(=O)N2CCC(C(=O)NCc3ccc(OC(C)C)cc3)CC2)c1C` yielded an RP-LC retention time of 850 s.
`O=C1NCCCn2nc(C3CCN(S(=O)(=O)c4ccc5c(c4)CCC5)CC3)cc21` showed an RP-LC retention time of 800 s.
For `CCOC(=O)c1c(C)oc2nc(C)nc(N3CCN(Cc4ccc5c(c4)OCO5)CC3)c12`, the RP-LC retention time was 708 s.
With `CCOc1ccc(-c2ccc(=O)n(Cc3nc(-c4ccccc4C)no3)n2)cc1` the RP-LC retention time was 1040 s.
With `COCC(=O)Nc1nc(-c2ccc3c(c2)NC(=O)CO3)c(C)s1` the RP-LC retention time was 705 s.
Work on `COc1ccc(CN(CCC2(C(C)C)CCOC(C)(C)C2)C(C)=O)cc1` (stereo not drawn) yielded an RP-LC retention time of 987 s.
`O=C(c1cccc(Nc2c(-c3ccc(Cl)cc3)nc3cnccn23)c1)N1CCOCC1` gave an RP-LC retention time of 719 s.
Compound `CN(C)CCNC(=O)c1csc(-c2ccc(N3CCCC3)nc2)n1` has an RP-LC retention time of 548 s.
For `Cc1c(Cl)cccc1-n1ccnc(NC(=O)Nc2ccc(F)cc2)c1=O`, the RP-LC retention time was 1000 s.
Compound `CCOC(=O)c1noc2ncnc(NCC3CCN(Cc4cccc(F)c4)CC3)c12` has an RP-LC retention time of 705 s.
`Cc1nnc(N2CCC(C(=O)N3CCN(C)CC3)CC2)c2nn(-c3ccccc3)c(C)c12` gave an RP-LC retention time of 573 s.
`Cc1c(-c2nnc(C(=O)NCCN3CCCCCC3)o2)oc2ccccc12` gave an RP-LC retention time of 667 s.
